Results as given in US9977009B2, “Planar patch clamp device and planar patch clamp system” (Japan Science and Technology Agency, priority 2013, dated 2018).

Legend:
[1] = tested on: nerve cells obtained by dissecting the cerebral cortex of a rat (neuron network); assay: Channel current measurement of a neuron network with the composite multi-channel type planar patch clamp device (whole-cell mode); assay type: cell-based; conditions: applied membrane potential −20 mV; for increase of large area pulse channel current in the state of glutamic acid toxicity: CNQX (200 μM) and D-AP5 (200 μM) added together after 20 μM glutamic acid, about 60 minutes, FIG. 12(c)
Description: The composite multi-channel type planar patch clamp device (1b) of the present invention was used to conduct experiments showing that high throughput screening of drugs acting on a neural network is possible. At the cell fixing locations (24) of the Si substrate surface (2S) having approximately 2 micron size through holes (3) of the composite multi-channel type planar patch clamp device (1b) shown in FIG. 5, nerve cells (5) obtained by dissecting the cerebral cortex of a rat on day 17 of birth were seeded. The commercially available nerve cell medium (Sumitomo Bakelite) was added and the result cultured in a dish for 11 days to form a neuron network which was then observed by an optical microscope (FIG. 10). Next, the Si substrate (2) on which the nerve cells (5) were placed was set on the composite multi-channel type planar patch clamp device (1b) and the reservoir sections (22) of the first reservoir (6) were filled with the bath solution (145 mM NaCl+3 mM KCl+10 mM HEPES+2 mM CaCl2+8 mM Glucose+1 mM MgCl2.6H2O, pH7.3). […] A flat baseline was recorded without regard to the applied membrane potential. […] After measurement for about 60 minutes, to one reservoir section (22) of the first reservoir, a bath solution comprising the AMPA receptor antagonist 6-cyano-7-nitroquinoxaline-2,3-dione (CNQX)(200 μM) and NMDA receptor antagonist D-(−)-2-amino-5-phosphonopentanoic acid (D-AP5) (200 μM) dissolved in it was introduced and the channel current was again measured (FIG. 11C). […] To show these states clearer, the channel current of the applied membrane potential −20 mV was focused on and the area of each pulse-like wavelength observed was calculated. […] By filling the other reservoir sections (22) with other candidate drugs, making the valves (10) of the branch supply path (8b) and branch discharge path (9b) corresponding to the measured section the opened state, making the other valves (10) the closed state, and similarly measuring the channel current, it is possible to measure the effect of a candidate drug on the neuron network. […]

[2] = tested on: Cerebral cortex cells of a rat (neuron network); assay: Ca^2+ imaging of a neuron network; assay type: cell-based; conditions: buffer solution (500 μl) containing 10 μM glutamic acid added; FIG. 13(b)
Experimental: Inside the 35 mm dish (a), the substrate of FIG. 6 (finished being coated by PLL) was placed. Cerebral cortex cells of a rat on day 17 of birth isolated by the enzyme trypsin were suspended by a commercially available nerve cell medium (Sumitomo Bakelite) to give 2.5×10^5 cells/ml. This cell suspension: 2 ml (=5.0×10^5 cells) was added to the dish (a). In the presence of 5% CO2, this was cultured at 37° C. for 17 days. After formation of the neuron network, this substrate was transferred to another dish (b). To this dish (b), a nerve cell medium (2 ml) was added. To this medium, BAPTA-1 (1 μl) and Cremophor (10 μl) were added and cultured at 37° C. for 1 hour. The culture supernatant was discarded and a buffer solution (145 mM NaCl+10 mM HEPES+8 mM Glucose+3 mM KCl+2 mM CaCl2+1 mM MgCl2, pH7.3): 2 ml was added. This was stored at room temperature away from the light until right before use and the Ca^2+ fluorescence intensity was measured (Ca^2+ imaging measurement) (FIG. 13(a)). After this, a buffer solution (500 μl) containing 10 μM concentration glutamic acid was added. After 2.5 minutes, time lapse measurement of Ca^2+ imaging was started (FIG. 13(b)). After 9.5 minutes, an antagonist mixture: 10 μl containing 2.5 mM D-AP5 and 2.5 mM CNQX was added. Furthermore, after 10.5 minutes, time lapse measurement of Ca^2+ imaging was performed (FIG. 13(c)).

| Structure (SMILES) | increase of large area pulse channel current in the state of glutamic acid toxicity [1] | large area pulse channel current ([1]; glutamic acid added to first reservoir, final concentration 20 μM, FIG. 12(b)) | concentration of Ca^2+ in the cells [2] |
| --- | --- | --- | --- |
| N#Cc1cc2c(cc1[N+](=O)[O-])=NC(=O)C(=O)N=2 [CNQX, 6-cyano-7-nitroquinoxaline-2,3-dione] | substantially eliminated | – | – |
| N[C@H](CCCP(=O)(O)O)C(=O)O [D-AP5, D-(−)-2-amino-5-phosphonopentanoic acid] | substantially eliminated | – | – |
| N[C@@H](CCC(=O)O)C(=O)O [glutamic acid] | – | increases | rise in a fluctuating manner |
